Measured values: publication PMC6264278, “Corydaline Inhibits Multiple Cytochrome P450 and UDP-Glucuronosyltransferase Enzyme Activities in Human Liver Microsomes” (Molecules, 2011)

Target: T1, UGT1A4 (Homo sapiens, UniProt P22310)
T1 construct: using pooled human liver microsomes; tissue BD Gentest Co. H161; host or cells: pooled human liver microsomes
T1 sequence (P22310 29-534): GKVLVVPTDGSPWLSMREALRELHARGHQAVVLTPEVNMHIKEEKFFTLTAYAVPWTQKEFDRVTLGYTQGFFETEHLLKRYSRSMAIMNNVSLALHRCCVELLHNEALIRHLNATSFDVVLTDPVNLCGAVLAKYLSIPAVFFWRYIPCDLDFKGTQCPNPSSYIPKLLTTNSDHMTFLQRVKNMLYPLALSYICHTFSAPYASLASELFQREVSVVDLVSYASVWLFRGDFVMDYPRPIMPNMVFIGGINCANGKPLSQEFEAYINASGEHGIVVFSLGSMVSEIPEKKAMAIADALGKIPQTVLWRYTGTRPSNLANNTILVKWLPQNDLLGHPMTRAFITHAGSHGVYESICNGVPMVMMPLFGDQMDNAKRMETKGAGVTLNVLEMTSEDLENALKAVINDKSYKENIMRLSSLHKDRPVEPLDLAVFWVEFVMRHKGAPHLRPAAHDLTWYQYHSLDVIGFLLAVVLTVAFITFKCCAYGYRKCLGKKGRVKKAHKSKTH
Experiment: UGT1A4 trifluoperazine N-glucuronidation inhibition in pooled human liver microsomes
Type: in vitro ADME
Conditions: pooled human liver microsomes (H161), 5 μM trifluoperazine, no inhibition at 1,000 μM of corydaline
Protocol: The inhibitory potencies (IC50 values) of corydaline were also determined with UGT assays in the presence and absence of corydaline (final concentrations of 1–1,000 μM with acetonitrile concentration less than 0.5% v/v) using pooled human liver microsomes. 17β-Estradiol 3-glucuronidation, trifluoperazine glucuronidation, propofol glucuronidation, and azidothymidine glucuronidation activities were determined as probe activities for UGT1A1, UGT1A4, UGT1A9, and UGT2B7, respectively, using LC/MS/MS. Incubation mixtures were prepared in a total volume of 100 μL, as follows: Pooled human liver microsomes (0.2 mg/mL for 17β-estradiol, trifluoperazine and azidothymidine; 0.1 mg/mL for propofol), 2 mM UDPGA, 25 μg/mL alamethicin, 10 mM MgCl2, 50 mM tris buffer (pH 7.4), UGT-isoform specific probe substrate (20 μM 17β-estradiol for UGT1A1, 5 μM trifluoperazine for UGT1A4, 10 μM propofol for UGT1A9, or 100 μM azidothymidine for UGT2B7), and various concentrations of corydaline (1−1000 μM). […]
Glucuronides produced from UGT isoform-specific substrates were respectively determined by LC/MS/MS. […] Quantification was performed by SRM of the [M+H]^+ ion for trifluoperazine glucuronide and azidothymidine glucuronide or [M−H]^− for 17β-estradiol 3-glucuronide and propofol glucuronide and the related product ion for each metabolite. […]

IC50, UGT1A4 trifluoperazine N-glucuronidation: not inhibited
IC50, UGT1A4 trifluoperazine N-glucuronidation (listed as corydaline): No inhibition *
SMILES: COc1cc2c(cc1OC)C1C(C)c3ccc(OC)c(OC)c3CN1CC2 (centres unmarked) [Corydaline, 2,3,9,10-tetramethoxy-13-methyl-5,8,13,13a-tetrahydro-6H-isoquino[3,2-a]isoquinoline]
